Experimental data from PubChem BioAssay AID1996.
Values after ≈ are worked out from the molar mass of the structure shown.

Conditions: buffer; pH 7.4; 200.0 µM

Row | solubility kinetic | SMILES
1 | > 30.9 µg/mL | Nc1c([N+](=O)[O-])c(=O)oc2ccccc12
2 | > 50.6 µg/mL | Cc1noc(C)c1S(=O)(=O)Nc1ccccc1N1CCOCC1
3 | 24.1 µg/mL (≈ 88.8 µM) | Cc1[nH]c2ccccc2c1C(=O)COC(=O)C1CCC1
4 | > 43.4 µg/mL | Cc1cccc(NC(=O)COC(=O)CC2CCCC2)c1C
5 | 14.6 µg/mL (≈ 50.3 µM) | CC(C)c1nc2sc(C(=O)O)c(N)c2c2c1CCCC2
6 | 6.2 µg/mL (≈ 17.9 µM) | CC1=C(C(=O)OCCC(C)C)C(c2ccc3c(c2)OCO3)NC(=O)N1 (stereo not given)
7 | > 47.6 µg/mL | CCNC(=O)c1ccccc1NC(=O)C1CC(=O)N(C(C)C)C1 (stereo not given)
8 | 3.1 µg/mL (≈ 8.63 µM) | CCCOC(=O)C1=C(C)NC(=O)NC1c1ccc(Br)s1 (stereo not given)
9 | 19.9 µg/mL (≈ 55.3 µM) | CCCCS(=O)(=O)N1CCCC(C(=O)Nc2ccc(Cl)cn2)C1 (stereo not given)
10 | > 48.2 µg/mL | CCOCCn1c(N2CCCC2)nc2c1c(=O)n(C)c(=O)n2C
11 | > 74.7 µg/mL | NS(=O)(=O)c1ccc(CCNC(=O)c2ccc(Cl)c(S(=O)(=O)NCc3ccco3)c2)cc1
12 | 17.7 µg/mL (≈ 56.7 µM) | Cc1ccc(N2C(=O)C3C4C=CC(CC4)C3C2=O)c([N+](=O)[O-])c1 (stereo not given)
13 | 44.7 µg/mL (≈ 146 µM) | CC(O)c1cccc(NC(=O)Cc2cccc3ccccc23)c1 (stereo not given)
14 | 2.4 µg/mL (≈ 7.24 µM) | CS(=O)(=O)/C(C#N)=C/c1c(-c2ccccc2)nc2n1CCS2
15 | < 0.2 µg/mL | O=C(NC(=O)c1ccccc1Cl)Nc1ccc(-c2cnco2)cc1
16 | 5.3 µg/mL (≈ 14.2 µM) | COc1cc(C(=O)OCc2cc(=O)n3ccsc3n2)ccc1OC(C)C
17 | 6.5 µg/mL (≈ 14.2 µM) | CC(=O)Nc1ccc(S(=O)(=O)N(C)c2ccc(OCCOc3ccccc3F)cc2)cc1
18 | < 0.7 µg/mL | O=C(O/N=C1/CCCc2occc21)c1ccc(Cl)cc1Cl
19 | > 44.7 µg/mL | O=C(OCC(=O)N1CCCCC1)c1ccc2ccccc2n1
20 | > 28.7 µg/mL | NC(=O)c1ccccc1OC1CCC1

Row | solubility kinetic | SMILES
21 | > 41.6 µg/mL | O=C(CNC(=O)c1ccco1)OCc1ccccc1F
22 | > 58.1 µg/mL | COc1cc(CC(=O)OCC(=O)NC(C)c2ccccc2)cc(OC)c1OC (stereo not given)
23 | < 0.7 µg/mL | COc1ccc(C(=O)CCC(=O)Nc2ccc(Cl)cc2)cc1
24 | 4.8 µg/mL (≈ 14.3 µM) | CCn1cc(C(c2ccccc2)C(C(C)=O)[N+](=O)[O-])c2ccccc21 (stereo not given)
25 | 2.2 µg/mL (≈ 9.08 µM) | O=C(Nc1ccc([N+](=O)[O-])cc1)c1ccccc1
26 | 5.7 µg/mL (≈ 18.4 µM) | COc1ccccc1NC(=O)Nc1ccc2c(c1)nc(C)n2C
27 | 15.8 µg/mL (≈ 49.8 µM) | O=C(Cn1cc([N+](=O)[O-])ccc1=O)Nc1ccc2c(c1)OCO2
28 | 3.5 µg/mL (≈ 12.9 µM) | Cc1cc(NC(=O)c2ccc(Cl)cc2Cl)no1
29 | 3.6 µg/mL (≈ 10.7 µM) | CSc1ncccc1C(=O)OCC(=O)Nc1ccc(Cl)cn1
30 | > 40.5 µg/mL | Cc1cccnc1NC(=O)c1ccc2c(c1)OCCO2
31 | > 51.9 µg/mL | COc1ccc(CNC(=O)COC(=O)C2(C)CC2(Cl)Cl)cc1 (stereo not given)
32 | > 41.3 µg/mL | CCC(=O)Nc1cccc(C(=O)Nc2nccs2)c1
33 | 42.7 µg/mL (≈ 149 µM) | CC(=O)Nc1c(-c2ccccc2)nc2ccc(Cl)cn12
34 | > 48.1 µg/mL | CC1CCCN(C(=O)C2CC(=O)N(c3ccc(Cl)cc3)C2)C1 (stereo not given)
35 | 0.8 µg/mL (≈ 2.29 µM) | CC(=O)c1c(C)[nH]c(C(=O)Nc2ccc(C)cc2Br)c1C
36 | > 46.8 µg/mL | CC(C)n1cnnc1SCC(=O)Nc1cccnc1Cl
37 | > 42.6 µg/mL | O=C(COC(=O)COc1ccc(Cl)cc1)NC1CC1
38 | 46.8 µg/mL (≈ 148 µM) | Cc1cccc(OCC(=O)NCCCNC(=O)c2ccco2)c1
39 | 31.7 µg/mL (≈ 131 µM) | CN1CC(C(=O)O)Cc2c1ccc1ccccc21 (stereo not given)
40 | 42.8 µg/mL (≈ 136 µM) | COc1ccc(C(=O)NCCCNC(=O)c2cnccn2)cc1

Row | solubility kinetic | SMILES
41 | > 43.8 µg/mL | O=C1CSC(c2ccccn2)N1c1ccc(F)cc1F (stereo not given)
42 | 2 µg/mL (≈ 6.7 µM) | Cc1ccc(C(=O)NC(=S)N(C)Cc2ccccc2)cc1
43 | > 48.4 µg/mL | CCOC(=O)CNC(=O)CNC(=O)c1ccc(OC(C)C)cc1
44 | < 0.3 µg/mL | O=C(Nc1nc2ccsc2c(=O)s1)c1ccc(Cl)cc1
45 | 36.5 µg/mL (≈ 124 µM) | CCCCNC(=O)O/N=C(\N)CS(=O)(=O)C(C)(C)C
46 | 0.4 µg/mL (≈ 1.49 µM) | COc1ccccc1/C=C/c1nc(C#N)c(N(C)C)o1
47 | 7.1 µg/mL (≈ 22.6 µM) | Cc1ccc(N2C(=O)CC(Cc3ccc(Cl)cc3)C2=O)cc1 (stereo not given)
48 | > 57.2 µg/mL | Cc1ccc(NC(=O)CN2CCOCC2)cc1S(=O)(=O)N1CCCCC1
49 | > 50 µg/mL | CCOc1ccc(N2CC(C(=O)NC3=NCCS3)CC2=O)cc1 (stereo not given)
50 | > 62.5 µg/mL | O=S(=O)(Nc1cc(S(=O)(=O)N2CCOCC2)ccc1Cl)c1ccccc1
51 | 46.4 µg/mL (≈ 135 µM) | O=C(NC1CCC(O)CC1)c1ccccc1OCc1ccc(F)cc1 (stereo not given)
52 | > 48.1 µg/mL | CCOC(=O)c1c(-c2ccc(F)cc2)csc1/N=C/N(C)C
53 | 15 µg/mL (≈ 48.1 µM) | COc1cccc(C(=O)Nc2cc(Cl)c(O)c(Cl)c2)c1
54 | 12.9 µg/mL (≈ 37 µM) | Cc1cc(N/C=C(\C#N)S(=O)(=O)c2ccc(Cl)cc2)nc(C)n1
55 | < 0.6 µg/mL | CCCN(CCC)Cc1cc(=O)oc2cc3c(cc12)CCC3
56 | 2.6 µg/mL (≈ 8.06 µM) | Cc1ccc(C(=O)NCC(=O)Nc2ccc3c(c2)CCC3)cc1C
57 | 13.3 µg/mL (≈ 47.3 µM) | Cc1cc(C)cc(OCc2nc(-c3cccnc3)no2)c1
58 | > 43.8 µg/mL | Cc1cc(OC(=O)c2cccc(F)c2)c([N+](=O)[O-])c(=O)[nH]1
59 | > 62.3 µg/mL | Cc1ccc(S(=O)(=O)NCC(=O)OCC(=O)N(CCC#N)c2ccccc2)cc1
60 | 33.1 µg/mL (≈ 148 µM) | O=C(C(Cl)c1ccccc1)N1CCCC1 (stereo not given)
